Consider 6 compounds from US12383633B1, “Injectable formulations of PARP inhibitors and uses thereof” (ZYMERON CORPORATION, priority 2024, dated 2025).

Like-named read-outs stand apart in the source and are kept apart here. Bounds are passed on as bounds.

For data set [1] the following is noted: cited from earlier work.
How the values of data set [2] were obtained:
2.5 mL solutions of each excipient with each concentration were prepared by serial dilution of the saturated solution. One vial for each excipient experiment was prepared with 2.5 ml water. To each vial, 50 mg olaparib was added, sonicated, vortexed, and shaken at 40° C. for over 20 hr. After agitation at 25° C., the suspensions were filtered to obtain clear solutions. The clear solutions were analyzed using HPLC.
2.5 mL solutions of each excipient with each concentration were prepared by serial dilution of the 600 mg/mL solution. One vial for each excipient experiment was prepared with 2.5 mL water. To each vial, 50 mg olaparib was added, sonicated, vortexed, and shaken at 40° C. for over 20 hours. After agitation at 25° C., the suspensions were filtered to obtain clear solutions. The clear solutions were analyzed using HPLC.

The format of data set [3] is physicochemical. Here is the method:
Sulfobutylether-β-cyclodextrin-enabled olaparib solubility enhancement experiments were conducted at various olaparib and sulfobutylether-β-cyclodextrin concentrations (FIG. 5). The dissolved quantity of olaparib increased when the concentration of sulfobutylether-β-cyclodextrin increased, indicating the formation of a 1:1 complex between the drug and solubilizer. The apparent complexation constant (K1:1) was calculated to be 432.4 M^−1 at 22° C.
This would be equivalent to >10 and >50 molar and weight ratios, respectively.
Sulfobutylether-β-cyclodextrin-enabled rucaparib solubility enhancement experiments were conducted at various rucaparib and sulfobutylether-β-cyclodextrin concentrations (FIG. 6). The dissolved quantity of rucaparib increased when the concentration of sulfobutylether-β-cyclodextrin increased, indicating the formation of a 1:1 complex between the drug and solubilizer. The apparent complexation constant (K1:1) was calculated to be 596.7 M^−1 at 22° C.

For data set [4] the following is noted: direct injection of 30-40% (w/v), preclinical studies; cited from earlier work.

Regarding `OC[C@@H](O)[C@@H](O)[C@H](O)[C@H](O)CO` [D-mannitol], in data set [1] (25° C.), the saturated water solubility is on record as 216 mg/mL. In addition, the “Solubility Enhancement Factor” value in data set [2] is 1.

As for `CC(O)COC[C@H]1O[C@@H]2O[C@H]3[C@H](O)[C@@H](O)[C@@H](O[C@H]4[C@H](O)[C@@H](O)[C@@H](O[C@H]5[C@H](O)[C@@H](O)[C@@H](O[C@H]6[C@H](O)[C@@H](O)[C@@H](O[C@H]7[C@H](O)[C@@H](O)[C@@H](O[C@H]8[C@H](O)[C@@H](O)[C@@H](O[C@H]1[C@H](O)[C@H]2O)O[C@@H]8COCC(C)O)O[C@@H]7COCC(C)O)O[C@@H]6COCC(C)O)O[C@@H]5COCC(C)O)O[C@@H]4COCC(C)O)O[C@@H]3COCC(C)O` (stereo partly drawn) [HP-β-cyclodextrin, 2-hydroxypropyl-β-cyclodextrin], in data set [2], the “Solubility Enhancement Factor” value is on record as 324 and the “olaparib water solubility improvement by excipient” value is “more than 100 fold”.

As for `O=C(c1cc(Cc2n[nH]c(=O)c3ccccc23)ccc1F)N1CCN(C(=O)C2CC2)CC1` [olaparib], the water solubility in data set [1] is less than 0.07 mg/mL. Besides, in data set [3], the “apparent complexation constant (K1:1)” value worked out at 432.4 M⁻¹. In addition, the “equivalent weight ratio sulfobutylether-β-cyclodextrin to olaparib” value in data set [3] (to achieve 5 mg/ml olaparib) is on record as more than 50.

Consider `CNCc1ccc(-c2[nH]c3cc(F)cc4c3c2CCNC4=O)cc1` [rucaparib], for which the water solubility entry in data set [1] (across the physiological pH range) is given as “around 1 mg/mL”. Further, in data set [3], the “apparent complexation constant (K1:1)” value came out at 596.7 M⁻¹.

On to `OC[C@H]1O[C@@H]2O[C@H]3[C@H](O)[C@@H](O)[C@@H](O[C@H]4[C@H](O)[C@@H](O)[C@@H](O[C@H]5[C@H](O)[C@@H](O)[C@@H](O[C@H]6[C@H](O)[C@@H](O)[C@@H](O[C@H]7[C@H](O)[C@@H](O)[C@@H](O[C@H]8[C@H](O)[C@@H](O)[C@@H](O[C@H]1[C@H](O)[C@H]2O)O[C@@H]8CO)O[C@@H]7CO)O[C@@H]6CO)O[C@@H]5CO)O[C@@H]4CO)O[C@@H]3CO` [β-cyclodextrin], for which, in data set [2], the “Solubility Enhancement Factor” value is on record as 10 and the “olaparib water solubility improvement by excipient” value was determined as 10 fold.

With “sulfobutylether-β-cyclodextrin [Sulfobutylether β-cyclodextrin]”, the hypertonicity-related adverse effects result in data set [4] is given as “did not lead to any hypertonicity-related adverse effects”.
